The record followed here is patent EP3154958B1, “PHOSPHATIDYLINOSITOL 3-KINASE INHIBITORS” (Gilead Sciences, Inc., priority 2014, dated 2015).

What all share (format): biochemical
The target in experiment [1] is T1, PI3Kδ (Homo sapiens, UniProt O00329).
T1 construct: made in house
Description: TR-FRET enzymatic activity assay, PI3Kδ. The method, boiled down: (§1)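 Read-out is TR-FRET. The assay scores enzymatic activity of the individual PI3K isoforms in the presence of compound.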
In general terms: TR-FRET usually uses a lanthanide donor and a delayed reading to cut background.

The target of experiment [2] is T2, PI3Kβ (Homo sapiens, UniProt P42338).
T2 construct: made in house
In words: TR-FRET enzymatic activity assay, PI3Kβ. In short, it runs like this: as §1

The target in experiment [3] is T3, PI3Kγ (Homo sapiens, UniProt P48736).
T3 construct: made in house
Description: TR-FRET enzymatic activity assay, PI3Kγ. The method, boiled down: as §1

Where [4] appears, read: recombinant heterodimeric PI3Kδ 25-50 pM, 2× Km ATP, 30 minutes at 25°C.
[5] abbreviates: recombinant heterodimeric PI3Kβ 25-50 pM, 2× Km ATP, 30 minutes at 25°C.
Setting [6] is: recombinant heterodimeric PI3Kγ 2 nM, 2× Km ATP, 30 minutes at 25°C.

SMILES strings stand for the structures. Like-named read-outs stand apart in the source and are kept apart here.

T1 sequence (O00329 whole entry): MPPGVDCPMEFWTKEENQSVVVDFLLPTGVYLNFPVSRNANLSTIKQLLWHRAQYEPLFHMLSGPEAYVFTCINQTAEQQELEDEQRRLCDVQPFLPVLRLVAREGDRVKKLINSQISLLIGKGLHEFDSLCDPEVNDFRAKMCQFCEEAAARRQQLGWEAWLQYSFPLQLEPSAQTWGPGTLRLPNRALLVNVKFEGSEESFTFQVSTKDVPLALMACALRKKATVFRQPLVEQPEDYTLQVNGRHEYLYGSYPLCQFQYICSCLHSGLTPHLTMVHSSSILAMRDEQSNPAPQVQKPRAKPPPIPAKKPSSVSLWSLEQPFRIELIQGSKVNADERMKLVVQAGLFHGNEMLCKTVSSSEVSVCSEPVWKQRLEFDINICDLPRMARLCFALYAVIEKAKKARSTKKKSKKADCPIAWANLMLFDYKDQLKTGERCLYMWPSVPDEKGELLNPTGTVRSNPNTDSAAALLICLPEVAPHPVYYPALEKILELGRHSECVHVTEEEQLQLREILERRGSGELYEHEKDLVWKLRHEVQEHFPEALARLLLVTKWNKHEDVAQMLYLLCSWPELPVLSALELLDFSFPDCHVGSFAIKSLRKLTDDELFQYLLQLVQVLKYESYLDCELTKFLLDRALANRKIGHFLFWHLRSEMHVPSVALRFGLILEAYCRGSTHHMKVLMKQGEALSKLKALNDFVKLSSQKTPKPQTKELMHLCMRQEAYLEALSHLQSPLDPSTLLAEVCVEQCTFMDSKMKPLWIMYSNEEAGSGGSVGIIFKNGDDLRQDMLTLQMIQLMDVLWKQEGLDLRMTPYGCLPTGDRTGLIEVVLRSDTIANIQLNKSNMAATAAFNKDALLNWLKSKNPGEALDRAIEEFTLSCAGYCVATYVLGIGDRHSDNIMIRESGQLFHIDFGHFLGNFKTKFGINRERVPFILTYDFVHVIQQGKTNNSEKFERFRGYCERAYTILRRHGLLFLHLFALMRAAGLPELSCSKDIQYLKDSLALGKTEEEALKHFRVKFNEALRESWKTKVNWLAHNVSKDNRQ
T1 sequence (P27986 whole entry partner): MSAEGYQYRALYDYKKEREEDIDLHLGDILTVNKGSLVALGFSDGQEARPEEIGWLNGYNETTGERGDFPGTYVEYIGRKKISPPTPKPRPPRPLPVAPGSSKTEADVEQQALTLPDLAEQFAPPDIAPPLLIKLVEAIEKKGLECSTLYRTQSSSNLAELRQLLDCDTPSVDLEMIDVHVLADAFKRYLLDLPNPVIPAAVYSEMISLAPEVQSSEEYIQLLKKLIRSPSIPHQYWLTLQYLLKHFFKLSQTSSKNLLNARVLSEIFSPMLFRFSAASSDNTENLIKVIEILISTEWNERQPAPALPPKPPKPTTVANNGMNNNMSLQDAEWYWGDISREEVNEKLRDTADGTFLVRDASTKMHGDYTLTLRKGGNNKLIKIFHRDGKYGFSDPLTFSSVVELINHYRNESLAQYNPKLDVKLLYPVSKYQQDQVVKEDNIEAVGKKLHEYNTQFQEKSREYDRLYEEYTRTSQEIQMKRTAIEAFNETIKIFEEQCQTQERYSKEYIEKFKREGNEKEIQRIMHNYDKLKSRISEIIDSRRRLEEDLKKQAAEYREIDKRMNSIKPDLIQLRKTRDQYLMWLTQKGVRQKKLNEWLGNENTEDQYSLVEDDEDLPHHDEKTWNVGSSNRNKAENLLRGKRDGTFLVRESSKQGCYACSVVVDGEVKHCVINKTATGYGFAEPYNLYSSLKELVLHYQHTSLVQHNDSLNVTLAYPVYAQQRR
T3 sequence (P48736 whole entry): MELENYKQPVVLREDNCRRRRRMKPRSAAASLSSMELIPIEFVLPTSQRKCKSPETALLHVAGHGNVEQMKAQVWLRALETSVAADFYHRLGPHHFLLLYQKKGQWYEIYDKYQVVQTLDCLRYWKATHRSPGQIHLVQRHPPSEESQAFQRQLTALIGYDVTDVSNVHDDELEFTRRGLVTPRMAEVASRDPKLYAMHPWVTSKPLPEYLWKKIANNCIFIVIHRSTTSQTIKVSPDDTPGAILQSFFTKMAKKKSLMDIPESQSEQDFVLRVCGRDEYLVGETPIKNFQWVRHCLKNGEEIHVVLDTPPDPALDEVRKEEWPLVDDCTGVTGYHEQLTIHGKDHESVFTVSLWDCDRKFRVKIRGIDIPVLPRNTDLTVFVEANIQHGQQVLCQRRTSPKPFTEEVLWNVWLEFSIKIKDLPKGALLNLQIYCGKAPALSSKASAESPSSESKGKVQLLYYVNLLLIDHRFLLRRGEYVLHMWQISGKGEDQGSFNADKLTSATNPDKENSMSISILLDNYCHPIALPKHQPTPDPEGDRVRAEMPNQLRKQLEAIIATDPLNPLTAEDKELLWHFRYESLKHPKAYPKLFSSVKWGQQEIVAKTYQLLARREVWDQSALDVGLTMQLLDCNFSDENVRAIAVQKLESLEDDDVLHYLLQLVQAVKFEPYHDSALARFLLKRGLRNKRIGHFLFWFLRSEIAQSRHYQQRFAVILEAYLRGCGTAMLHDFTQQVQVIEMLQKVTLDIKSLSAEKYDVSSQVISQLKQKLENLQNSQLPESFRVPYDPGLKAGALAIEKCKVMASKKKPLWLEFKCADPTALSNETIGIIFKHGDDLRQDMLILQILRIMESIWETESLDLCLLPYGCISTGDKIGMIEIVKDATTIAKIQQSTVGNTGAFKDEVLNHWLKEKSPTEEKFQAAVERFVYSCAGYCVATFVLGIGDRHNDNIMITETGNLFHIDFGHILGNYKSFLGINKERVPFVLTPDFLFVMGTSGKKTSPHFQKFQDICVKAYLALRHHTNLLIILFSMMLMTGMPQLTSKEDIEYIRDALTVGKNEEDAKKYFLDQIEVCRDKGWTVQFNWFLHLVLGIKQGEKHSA
T3 sequence (Q8WYR1 whole entry partner): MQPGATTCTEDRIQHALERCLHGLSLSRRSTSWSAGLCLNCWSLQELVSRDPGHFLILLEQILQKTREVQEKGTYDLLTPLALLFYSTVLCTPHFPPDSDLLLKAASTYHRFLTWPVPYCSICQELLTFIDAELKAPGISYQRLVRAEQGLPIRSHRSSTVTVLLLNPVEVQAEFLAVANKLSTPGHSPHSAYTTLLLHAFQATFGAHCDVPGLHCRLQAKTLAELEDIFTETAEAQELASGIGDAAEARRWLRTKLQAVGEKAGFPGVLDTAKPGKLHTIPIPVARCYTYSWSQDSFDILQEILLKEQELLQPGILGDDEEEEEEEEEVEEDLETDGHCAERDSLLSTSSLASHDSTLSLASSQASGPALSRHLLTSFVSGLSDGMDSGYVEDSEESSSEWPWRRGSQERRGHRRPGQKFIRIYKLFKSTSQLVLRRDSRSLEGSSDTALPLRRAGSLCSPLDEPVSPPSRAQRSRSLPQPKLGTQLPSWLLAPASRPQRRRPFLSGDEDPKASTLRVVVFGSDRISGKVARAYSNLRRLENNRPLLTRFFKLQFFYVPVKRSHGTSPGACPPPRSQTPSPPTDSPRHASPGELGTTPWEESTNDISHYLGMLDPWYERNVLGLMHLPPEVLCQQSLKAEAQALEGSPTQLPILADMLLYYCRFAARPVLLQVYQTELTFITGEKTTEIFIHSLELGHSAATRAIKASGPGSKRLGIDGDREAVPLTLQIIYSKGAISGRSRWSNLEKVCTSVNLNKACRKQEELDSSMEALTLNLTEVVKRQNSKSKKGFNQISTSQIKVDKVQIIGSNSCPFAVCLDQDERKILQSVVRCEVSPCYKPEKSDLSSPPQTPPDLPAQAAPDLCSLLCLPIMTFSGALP
T2 sequence (P42338 whole entry): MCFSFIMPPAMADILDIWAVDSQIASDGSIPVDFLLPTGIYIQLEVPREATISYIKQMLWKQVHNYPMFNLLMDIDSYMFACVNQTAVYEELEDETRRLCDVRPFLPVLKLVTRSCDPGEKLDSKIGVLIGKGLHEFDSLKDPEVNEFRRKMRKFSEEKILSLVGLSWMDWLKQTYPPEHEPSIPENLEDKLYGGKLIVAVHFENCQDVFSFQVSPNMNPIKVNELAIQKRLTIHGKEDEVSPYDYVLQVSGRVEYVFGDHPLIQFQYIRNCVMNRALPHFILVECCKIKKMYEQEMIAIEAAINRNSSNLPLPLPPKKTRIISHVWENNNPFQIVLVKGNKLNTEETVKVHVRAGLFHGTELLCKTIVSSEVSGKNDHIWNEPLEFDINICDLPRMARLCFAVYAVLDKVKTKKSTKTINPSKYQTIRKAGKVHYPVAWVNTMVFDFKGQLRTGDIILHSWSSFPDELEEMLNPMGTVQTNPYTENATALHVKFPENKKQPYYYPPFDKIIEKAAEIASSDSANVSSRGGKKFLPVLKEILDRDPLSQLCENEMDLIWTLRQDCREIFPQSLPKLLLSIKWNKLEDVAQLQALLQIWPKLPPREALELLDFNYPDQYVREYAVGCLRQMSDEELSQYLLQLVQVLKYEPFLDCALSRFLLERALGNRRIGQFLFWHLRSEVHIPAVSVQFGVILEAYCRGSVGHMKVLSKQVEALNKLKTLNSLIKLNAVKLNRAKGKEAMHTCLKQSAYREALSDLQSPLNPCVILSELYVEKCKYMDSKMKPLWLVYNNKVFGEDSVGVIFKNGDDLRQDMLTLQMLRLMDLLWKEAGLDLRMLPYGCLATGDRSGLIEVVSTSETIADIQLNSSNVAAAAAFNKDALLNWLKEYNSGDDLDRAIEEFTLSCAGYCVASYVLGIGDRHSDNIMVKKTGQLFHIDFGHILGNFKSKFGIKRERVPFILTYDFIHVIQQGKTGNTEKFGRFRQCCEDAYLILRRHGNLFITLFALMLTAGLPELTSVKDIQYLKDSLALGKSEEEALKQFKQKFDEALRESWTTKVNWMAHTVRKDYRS
T2 sequence (P27986 whole entry partner): as the sequence (P27986 whole entry partner) above

Broadly, the IC50 is the concentration that inhibits the measured activity by half. Consider `C[C@H](Nc1ncnc(N)c1C#N)c1nc2c(Cl)ccc(Cl)c2c(=O)n1N1CCNCC1` [Compound 76, (S)-4-amino-6-((1-(5,8-dichloro-4-oxo-3-(piperazin-1-yl)-3,4-dihydroquinazolin-2-yl)ethyl)amino)pyrimidine-5-carbonitrile], for which the IC50 in experiment [1] (setting [4]) was 2 nM; in experiment [2] (setting [5]), 25 nM; in experiment [3] (setting [6]) it was above 10000 nM.

`CC[C@H](Nc1nc(N)nc(N)c1C#N)c1nc2cccc(Cl)c2c(=O)n1N1CCN(Cc2ccc(C(F)(F)F)cc2)CC1` [Compound 87, (S)-2,4-diamino-6-((1-(5-chloro-4-oxo-3-(4-(4-(trifluoromethyl)benzyl)piperazin-1-yl)-3,4-dihydroquinazolin-2-yl)propyl)amino)pyrimidine-5-carbonitrile]: the IC50 in experiment [1] (setting [4]) is 57 nM; in experiment [2] (setting [5]) it was 10000 nM; in experiment [3] (setting [6]), above 10000 nM.

`N#Cc1c(N)nc(N)nc1N[C@H](c1nc2cccc(Cl)c2c(=O)n1N1CCNCC1)C1CC1` [Compound 77, (S)-2,4-diamino-6-(((5-chloro-4-oxo-3-(piperazin-1-yl)-3,4-dihydroquinazolin-2-yl)(cyclopropyl)methyl)amino)pyrimidine-5-carbonitrile]: the values for the IC50 in experiment [1] (setting [4]), in experiment [2] (setting [5]) and in experiment [3] (setting [6]) were 1 nM, 1 nM and 2900 nM, respectively.

Turning to `CC(C)N1CCN(n2c([C@H](C)Nc3nc(N)nc(N)c3C#N)nc3cccc(Cl)c3c2=O)CC1` [Compound 88, (S)-2,4-diamino-6-((1-(5-chloro-3-(4-isopropylpiperazin-1-yl)-4-oxo-3,4-dihydroquinazolin-2-yl)ethyl)amino)pyrimidine-5-carbonitrile], the concentration for half-maximal inhibition (IC50) is 54 nM in experiment [1] (setting [4]), 120 nM in experiment [2] (setting [5]) and 5800 nM in experiment [3] (setting [6]).

As for `Cc1nc(N)nc(N[C@@H](C)c2nc3cccc(Cl)c3c(=O)n2C2CCNCC2)c1C#N` [Compound 24, (S)-2-amino-4-((1-(5-chloro-4-oxo-3-(piperidin-4-yl)-3,4-dihydroquinazolin-2-yl)ethyl)amino)-6-methylpyrimidine-5-carbonitrile], the IC50 in experiment [1] (setting [4]) was 3 nM; in experiment [2] (setting [5]), 2 nM; in experiment [3] (setting [6]), above 10000 nM.

On to `C[C@H](Nc1ncnc(N)c1C#N)c1nc2cccc(Cl)c2c(=O)n1C1CCNC1` (stereo partly drawn) [Compound 85, 4-amino-6-(((1S)-1-(5-chloro-4-oxo-3-(pyrrolidin-3-yl)-3,4-dihydroquinazolin-2-yl)ethyl)amino)pyrimidine-5-carbonitrile], for which the IC50 is 7 nM in experiment [1] (setting [4]), 160 nM in experiment [2] (setting [5]) and above 10000 nM in experiment [3] (setting [6]).

Regarding `O=c1c2c(Cl)ccc(F)c2nc([C@@H](Nc2ncnn3ccnc23)C2CC2)n1N1CCNCC1` [Compound 47, (S)-5-chloro-2-(cyclopropyl(imidazo[2,1-f][1,2,4]triazin-4-ylamino)methyl)-8-fluoro-3-(piperazin-1-yl)quinazolin-4(3H)-one], the IC50 in experiment [1] (setting [4]) is 5 nM; in experiment [2] (setting [5]) it was 48 nM; in experiment [3] (setting [6]), above 10000 nM.

Turning to `C[C@H](Nc1ncnc(N)c1Cl)c1nc2cccc(Cl)c2c(=O)n1N1CCNCC1` [Compound 37, (S)-2-(1-((6-amino-5-chloropyrimidin-4-yl)amino)ethyl)-5-chloro-3-(piperazin-1-yl)quinazolin-4(3H)-one], the IC50 in experiment [1] (setting [4]) is 3 nM; in experiment [2] (setting [5]), 39 nM; in experiment [3] (setting [6]) it was above 10000 nM.

Consider `C[C@H](Nc1nc(N)nc(N)c1C#N)c1nc2cccc(Cl)c2c(=O)n1[C@H]1CCCNC1` [Compound 28, 2,4-diamino-6-(((S)-1-(5-chloro-4-oxo-3-((S)-piperidin-3-yl)-3,4-dihydroquinazolin-2-yl)ethyl)amino)pyrimidine-5-carbonitrile], for which the figures for the IC50 in experiment [1] (setting [4]), in experiment [2] (setting [5]) and in experiment [3] (setting [6]) were 22 nM, 170 nM and 6400 nM, respectively.

`C[C@H](Nc1ncnc2ccc(Cl)nc12)c1nc2c(Cl)ccc(Cl)c2c(=O)n1N1CCNCC1` [Compound 52, (S)-5,8-dichloro-2-(1-((6-chloropyrido[3,2-d]pyrimidin-4-yl)amino)ethyl)-3-(piperazinl-yl)quinazolin-4(3H)-one]: the concentration for half-maximal inhibition (IC50) in experiment [1] stood at 3 nM; in experiment [2], 8 nM; in experiment [3] it was 3100 nM.

Turning to `C[C@H](Nc1nc(N)nc(N)c1C#N)c1nc2cccc(Cl)c2c(=O)n1[C@H]1CCOC1` [Compound 136, 2,4-diamino-6-(((S)-1-(5-chloro-4-oxo-3-((S)-tetrahydrofuran-3-yl)-3,4-dihydroquinazolin-2-yl)ethyl)amino)pyrimidine-5-carbonitrile], the values for the IC50 in experiment [1] (setting [4]), in experiment [2] (setting [5]) and in experiment [3] (setting [6]) were 2 nM, 192 nM and 259 nM, respectively.

For the compound `C[C@H](Nc1ncnc(N)c1C#Cc1ccc(F)cn1)c1nc2cccc(Cl)c2c(=O)n1N1CCNCC1` [Compound 58, (S)-2-(1-((6-amino-5-((5-fluoropyridin-2-yl)ethynyl)pyrimidin-4-yl)amino)ethyl)-5-chloro-3-(piperazin-1-yl)quinazolin-4(3H)-one], the IC50 is 2 nM in experiment [1] (setting [4]), 10 nM in experiment [2] (setting [5]) and above 10000 nM in experiment [3] (setting [6]).

Turning to `CC[C@H](Nc1ncnn2ccnc12)c1nc2cccc(Cl)c2c(=O)n1N1CCNCC1` [Compound 42, (S)-5-chloro-2-(1-(imidazo[2,1-f][1,2,4]triazin-4-ylamino)propyl)-3-(piperazin-1-yl)quinazolin-4(3H)-one], the IC50 in experiment [1] (setting [4]) is 8 nM; in experiment [2] (setting [5]), 45 nM; in experiment [3] (setting [6]), above 10000 nM.

`CC(C)C[C@H](Nc1nc(N)nc(N)c1C#N)c1nc2cccc(Cl)c2c(=O)n1N1CCNCC1` [Compound 75, (S)-2,4-diamino-6-((1-(5-chloro-4-oxo-3-(piperazin-1-yl)-3,4-dihydroquinazolin-2-yl)-3-methylbutyl)amino)pyrimidine-5-carbonitrile]: the IC50 in experiment [1] (setting [4]) was 15 nM; in experiment [2] (setting [5]), 37 nM; in experiment [3] (setting [6]) it was above 10000 nM.

As for `C[C@H](Nc1nc(N)nc(N)c1C#N)c1nc2cccc(Cl)c2c(=O)n1C1CCNCC1(F)F` (stereo partly drawn) [Compound 38, 2,4-diamino-6-(((1S)-1-(5-chloro-3-(3,3-difluoropiperidin-4-yl)-4-oxo-3,4-dihydroquinazolin-2-yl)ethyl)amino)pyrimidine-5-carbonitrile], the IC50 in experiment [1] (setting [4]) came to 6 nM; in experiment [2] (setting [5]) it was 220 nM; in experiment [3] (setting [6]) it was 1500 nM.

Take `C[C@H](Nc1nc(N)nc(N)c1C#N)c1nc2cccc(Cl)c2c(=O)n1[C@@H]1CCCNC1` (stereo in doubt) [Compound 27, 2,4-diamino-6-(((S)-1-(5-chloro-4-oxo-3-((R)-piperidin-3-yl)-3,4-dihydroquinazolin-2-yl)ethyl)amino)pyrimidine-5-carbonitrile]: the IC50 in experiment [1] (setting [4]) is 830 nM; in experiment [2] (setting [5]), 5600 nM; in experiment [3] (setting [6]) it was above 10000 nM.

For the compound `C[C@H](Nc1nc(N)nc(N)c1C#N)c1nc2c(F)ccc(Cl)c2c(=O)n1N1CCNCC1` [Compound 54, (S)-2,4-diamino-6-((1-(5-chloro-8-fluoro-4-oxo-3-(piperazin-1-yl)-3,4-dihydroquinazolin-2-yl)ethyl)amino)pyrimidine-5-carbonitrile], the half-inhibitory concentration (IC50) in experiment [1] (setting [4]) turned out to be 2 nM; in experiment [2] (setting [5]), 4 nM; in experiment [3] (setting [6]), 1900 nM.

For `C[C@H](Nc1nc(N)nc(N)c1C#N)c1nc2c(F)ccc(Cl)c2c(=O)n1N1CCN(Cc2ccccc2)CC1` [Compound 116, (S)-2,4-diamino-6-((1-(3-(4-benzylpiperazin-1-yl)-5-chloro-8-fluoro-4-oxo-3,4-dihydroquinazolin-2-yl)ethyl)amino)pyrimidine-5-carbonitrile], the IC50 stood at 15 nM in experiment [1] (setting [4]), 13 nM in experiment [2] (setting [5]) and 470 nM in experiment [3] (setting [6]).

Regarding `C[C@H](NC(=O)c1nc(Cl)c(N)nc1N)c1nc2cccc(Cl)c2c(=O)n1N1CCNCC1` [Compound 33, (S)-3,5-diamino-6-chloro-N-(1-(5-chloro-4-oxo-3-(piperazin-1-yl)-3,4-dihydroquinazolin-2-yl)ethyl)pyrazine-2-carboxamide], the IC50 in experiment [1] (setting [4]) was determined as 14 nM; in experiment [2] (setting [5]), 4 nM; in experiment [3] (setting [6]), 7400 nM.

With `C[C@H](Nc1nc(N)nc(N)c1C#N)c1nc2cccc(Cl)c2c(=O)n1[C@@H]1CCOC1` [Compound 137, 2,4-diamino-6-(((S)-1-(5-chloro-4-oxo-3-((R)-tetrahydrofuran-3-yl)-3,4-dihydroquinazolin-2-yl)ethyl)amino)pyrimidine-5-carbonitrile], the IC50 in experiment [1] (setting [4]) is 5 nM; in experiment [2] (setting [5]), 47 nM; in experiment [3] (setting [6]) it was 229 nM.

Turning to `C[C@H](Nc1nc(N)nc(Cl)c1C#N)c1nc2cccc(Cl)c2c(=O)n1N1CCN(CC(F)(F)F)CC1` [Compound 110, (S)-2-amino-4-chloro-6-((1-(5-chloro-4-oxo-3-(4-(2,2,2-trifluoroethyl)piperazin-1-yl)-3,4-dihydroquinazolin-2-yl)ethyl)amino)pyrimidine-5-carbonitrile], the IC50 in experiment [1] (setting [4]) is 41 nM; in experiment [2] (setting [5]) it was 1400 nM; in experiment [3] (setting [6]) it was 2800 nM.

On to `CC[C@H](Nc1ncnc(N)c1C#N)c1nc2cccc(Cl)c2c(=O)n1N1CCNCC1` [Compound 79, (S)-4-amino-6-((1-(5-chloro-4-oxo-3-(piperazin-1-yl)-3,4-dihydroquinazolin-2-yl)propyl)amino)pyrimidine-5-carbonitrile], for which the values for the IC50 in experiment [1] (setting [4]), in experiment [2] (setting [5]) and in experiment [3] (setting [6]) were 7 nM, 78 nM and above 10000 nM, respectively.

For the compound `C[C@H](Nc1nc(N)nc(N)c1C#N)c1nc2c(Cl)cc(F)cc2c(=O)n1N1CCNCC1` [Compound 126, (S)-2,4-diamino-6-((1-(8-chloro-6-fluoro-4-oxo-3-(piperazin-1-yl)-3,4-dihydroquinazolin-2-yl)ethyl)amino)pyrimidine-5-carbonitrile], the IC50 came to 4 nM in experiment [1] (setting [4]), 5 nM in experiment [2] (setting [5]) and 4900 nM in experiment [3] (setting [6]).
